Experimental data reported in article PMC3607106 (Biochemistry, 2009).

Legend:
[1] = molecular target: MITC-modified MIF (human MIF covalently modified at Pro1 by methallyl isothiocyanate) (human) (UniProt P14174); experiment: SEC-MALS
MIF [2] = molecular target: T1, MIF (Homo sapiens, UniProt P14174); experiment: Covalent modification of MIF by MALDI-TOF MS and tryptic peptide mapping; assay type: binding; details: for site of covalent modification of MIF: trypsin digestion, peptide mapping, MS/MS, 10 μM
T1 sequence (P14174 2-115): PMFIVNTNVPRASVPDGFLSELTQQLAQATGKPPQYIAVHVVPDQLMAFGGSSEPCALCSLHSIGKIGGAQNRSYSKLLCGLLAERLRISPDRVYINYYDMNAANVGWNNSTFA

MIF [3] = molecular target: T1, MIF; experiment: MIF tautomerase activity; assay type: biochemical
MIF [4] = experiment: Covalent modification of MIF by MALDI-TOF MS and tryptic peptide mapping; assay type: binding, human; details: 10 μM BITC, 60 min
lysozyme = experiment: BITC modification specificity by MALDI-TOF; assay type: binding; details: equimolar, 1 h or overnight at RT
murine MIF = murine MIF (Mus musculus, UniProt P34884); experiment: MIF tautomerase activity; assay type: biochemical; details: read-out: inhibition of the tautomerase activity
ubiquitin = ubiquitin (Homo sapiens, UniProt P0CG47); experiment: BITC modification specificity by MALDI-TOF; assay type: binding; details: equimolar, 1 h or overnight at RT
human macrophages = experiment: Glucocorticoid overriding assay; assay type: cell-based
α-synuclein = α-synuclein (Homo sapiens, UniProt P37840); experiment: BITC modification specificity by MALDI-TOF; assay type: binding; details: equimolar, 1 h or overnight at RT
MIF [5] = molecular target: T1, MIF; experiment: Sedimentation velocity analytical ultracentrifugation of MIF; details: MIF 10 μM preincubated with 6 μM BITC 1 h RT
HeLa cells = experiment: Phospho Akt activation by MIF; assay type: cell-based, human
[6] = molecular target: BITC-modified MIF (human MIF covalently modified at Pro1 by benzyl isothiocyanate) (human) (UniProt P14174); experiment: SEC-MALS
[7] = molecular target: BITC-modified MIF (human MIF covalently modified at Pro1 by benzyl isothiocyanate) (human) (UniProt P14174); experiment: AUC
[8] = molecular target: EITC-modified MIF (human MIF covalently modified at Pro1 by ethyl isothiocyanate) (human) (UniProt P14174); experiment: SEC-MALS
[9] = molecular target: 2PITC-modified MIF (human MIF covalently modified at Pro1 by 2-piperidinoethyl isothiocyanate) (human) (UniProt P14174); experiment: SEC-MALS
[10] = molecular target: AITC-modified MIF (human MIF covalently modified at Pro1 by allyl isothiocyanate) (human) (UniProt P14174); experiment: SEC-MALS
[11] = molecular target: human macrophage migration inhibitory factor (MIF), unmodified (human) (UniProt P14174); experiment: SEC-MALS
[12] = molecular target: human macrophage migration inhibitory factor (MIF), unmodified (human) (UniProt P14174); experiment: AUC

Compound: MITC-modified MIF (human MIF covalently modified at Pro1 by methallyl isothiocyanate) (from UniProt P14174 1-115) (natural protein)
- stoichiometry N [1]: 3

Compound: S=C=NCCN1CCCCC1 [2PITC, 2-Piperidinoethyl isothiocyanate]
- site of covalent modification of MIF (MIF [2]): shown to modify MIF at the N-terminal Pro residue
- IC50 (MIF [3]): 3.09 µM

Compound: S=C=NC1CC1 [CPITC, cyclopropyl isothiocyanate]
- site of covalent modification of MIF (MIF [2]): shown to modify MIF at the N-terminal Pro residue

Compound: C=CCN=C=S [AITC, allyl isothiocyamate]
- site of covalent modification of MIF (MIF [2]): shown to modify MIF at the N-terminal Pro residue

Compound: S=C=NCc1ccccc1 [BITC, Benzyl isothiocyanate]
- formation of BITC-MIF adduct (MALDI-TOF) (MIF [2]; concentrations > 10 μM, MIF 15 μM, Tris 50 mM pH 7.4, 60 min): complete conversion to the singly modified form of MIF
- site of covalent modification of MIF (MIF [2]): modification takes place at the N-terminal proline residue
- modification of inactive MIF proteins (MIF [4]; R73AΔ5, R73AΔ10 or P107): no modification was observed
- modification of enzymatically active forms of MIF (MIF [4]; Wt, N110C and R73A): total modification
- modification of lysozyme (MS) (lysozyme): No modification was detected
- inhibition at 10 µM (MIF [3]; read-out: inhibition of the tautomerase activity): 100%
- inhibition at 10 µM (murine MIF): 100%
- modification of ubiquitin (MS) (ubiquitin): No modification was detected
- MIF-mediated dexamethasone overriding (human macrophages; BITC 10 μM, MIF 100 ng/mL, Dex 100 nM, LPS 100 ng/mL, 4 h): abrogated MIF-mediated dexamethasone overriding
- TNF production (human macrophages; BITC 10 μM, LPS-stimulated, compared with dexamethasone): decreased TNF production even more potently than dexamethasone
- macrophage viability (human macrophages; culture conditions used to induce TNF production (data not shown)): did not alter macrophage viability
- modification of α-synuclein (MS) (α-synuclein): No modification was detected
- quaternary structure distribution of MIF (sedimentation velocity) (MIF [5]): sedimented predominantly as a single species
- MIF-induced Akt phosphorylation (HeLa cells; BITC 1 and 10 μM, MIF 50 ng/mL, 2 h): inhibited MIF-induced Akt phosphorylation
- baseline Akt phosphorylation (HeLa cells; BITC alone): did not modify baseline Akt phosphorylation

Compound: BITC-modified MIF (human MIF covalently modified at Pro1 by benzyl isothiocyanate) (from UniProt P14174 1-115) (natural protein)
- stoichiometry N [6]: 3
- stoichiometry N [7]: 3

Compound: EITC-modified MIF (human MIF covalently modified at Pro1 by ethyl isothiocyanate) (from UniProt P14174 1-115) (natural protein)
- stoichiometry N [8]: 3

Compound: CCN=C=S [EITC, ethyl isothiocyanate]
- site of covalent modification of MIF (MIF [2]): shown to modify MIF at the N-terminal Pro residue

Compound: 2PITC-modified MIF (human MIF covalently modified at Pro1 by 2-piperidinoethyl isothiocyanate) (from UniProt P14174 1-115) (natural protein)
- stoichiometry N [9]: 3

Compound: C=C(C)CN=C=S [MITC, methallyl Isothiocyanate]
- site of covalent modification of MIF (MIF [2]): shown to modify MIF at the N-terminal Pro residue

Compound: AITC-modified MIF (human MIF covalently modified at Pro1 by allyl isothiocyanate) (from UniProt P14174 1-115) (natural protein)
- stoichiometry N [10]: 3

Compound: C[C@@H]1C[C@H]2[C@@H]3CCC4=CC(=O)C=C[C@]4(C)[C@@]3(F)[C@@H](O)C[C@]2(C)[C@@]1(O)C(=O)CO [dexamethasone, reference compound]
- TNF production by LPS-stimulated monocytes (human macrophages; dexamethasone 100 nM): inhibited TNF production

Compound: human macrophage migration inhibitory factor (MIF), unmodified (from UniProt P14174 1-115) (natural protein)
- stoichiometry N [11]: 3
- stoichiometry N [12]: 3
